# In PMC10065799, “High-throughput profiling of sequence recognition by tyrosine kinases and SH2 domains using bacterial peptide display” (eLife, 2023):
# T1: c-Abl kinase domain (Mus musculus, UniProt P00520)
# T1 sequence (P00520 242-493 limits assumed): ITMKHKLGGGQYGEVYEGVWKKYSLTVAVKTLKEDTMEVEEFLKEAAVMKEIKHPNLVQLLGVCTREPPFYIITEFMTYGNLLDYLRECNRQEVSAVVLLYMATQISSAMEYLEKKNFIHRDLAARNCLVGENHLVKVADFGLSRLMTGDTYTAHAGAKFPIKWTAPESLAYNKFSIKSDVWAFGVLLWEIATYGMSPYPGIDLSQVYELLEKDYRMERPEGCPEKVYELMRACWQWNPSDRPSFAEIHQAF
# Tests used:
# c-Src kinase domain = c-Src kinase domain (Homo sapiens, UniProt P12931); assay: pTyr-Var library bacterial peptide display kinase screen (enrichment scores); assay type: biochemical;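 as to c-Src hit?: Hit requires p below 0.05 and at least twofold variant vs reference change plus filters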
# Grb2 SH2 domain = assay: pTyr-Var library SH2 domain screen with SH2-dynabeads (enrichment scores)
# Hck kinase domain = assay: pTyr-Var library bacterial peptide display kinase screen (enrichment scores); assay type: biochemical, human
# Fyn kinase domain [1] = assay: as above; assay type: biochemical, human
# EPHB2 kinase domain = assay: as above; assay type: biochemical, human
# FGFR1 kinase domain [2] = assay: as above; assay type: biochemical, human
# c-Src SH2 domain = c-Src SH2 domain (Homo sapiens, UniProt P12931); assay: pTyr-Var library SH2 domain screen with SH2-dynabeads (enrichment scores); conditions: sheet c-Src
# SHP2 C-SH2 domain = assay: as above
# AncSZ kinase domain = assay: pTyr-Var library bacterial peptide display kinase screen (enrichment scores); assay type: biochemical;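 as to AncSZ hit?: Hit requires p below 0.05 and at least twofold variant vs reference change plus filters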
# FGFR3 kinase domain = assay: as above; assay type: biochemical, human
# Fer kinase domain = assay: as above; assay type: biochemical, mouse;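 as to Fer hit?: Hit requires p below 0.05 and at least twofold variant vs reference change plus filters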
# MERTK kinase domain = assay: as above; assay type: biochemical, human
# Fes = assay: as above; assay type: biochemical
# EPHB1 kinase domain = assay: as above; assay type: biochemical, human
# Jak2 = assay: as above; assay type: biochemical, human
# c-Abl kinase domain = biological target: T1, c-Abl kinase domain; assay: as above; assay type: biochemical
# FGFR1 kinase domain [3] = assay: LC-MS assay of intact SHP2 protein phosphorylation; assay type: biochemical, human; conditions: SHP2 10 μM, kinase 1 μM, 1 hr, 37 °C, 2 to 3 measurements
# Description: (§1) The same protocol used to express and purify SH2 domains, excluding co-expression of BirA and addition of biotin, was applied to the expression and purification of the SHP2 variants.
# (§2) To pre-activate the kinases, 1 μM of each purified kinase domain was preincubated at 37 °C for 30 min in the same buffer conditions used in the kinase domain peptide display screen, with 1 mM ATP. The reaction of the kinase with SHP2 was initiated with the addition of 10 μM SHP2, and the mixture was incubated in 37 °C for 1 hr. To terminate the reaction, the mixture was quenched with 200 mM EDTA. The reaction mixture was diluted 3:2 in water and injected onto a BEH C8 column (Waters) on a UPLC-MS system (Xevo QToF, Waters). Reverse-phase liquid chromatography was carried out at 0.3 mL/min with solvents A (H2O, 0.1% (v/v) formic acid) and B (acetonitrile, 0.1% (v/v) formic acid). Proteins were eluted over a gradient of 5–95% B for 8.5 min. The protein peak on the chromatogram was deconvoluted using the MaxEnt1 algorithm from 32,000–65,000 Da with a resolution of 1 Da/channel over 30 iterations. Peaks were chosen according to the theoretical MW of the protein within a range of 5 Da, and integrated for the signal intensity.
# Fyn kinase domain [4] = assay: LC-MS assay of intact SHP2 protein phosphorylation; assay type: biochemical, human; conditions: SHP2 10 μM, kinase 1 μM, 1 hr, 37 °C, 2 to 3 measurements
# Description: as §1, §2
# [5] = mean of log2 of enrichment over R1-R4
# [6] = pTyr-Var library, enrichment score, replicate 1
# [7] = pTyr-Var library, enrichment score, replicate 3
# [8] = pTyr-Var library, enrichment score, replicate 4
# [9] = variant versus reference peptide
# [10] = variant versus reference peptide, significant hit TRUE/FALSE
# [11] = mean of log2(variant) minus mean of log2(reference)
# [12] = mean of log2 enrichment of variant peptide, n = 4
# [13] = mean of log2 enrichment of variant peptide, n = 5
# 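For Fyn hit? in this document: Hit requires p below 0.05 and at least twofold variant vs reference change plus filters.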
molecule,measurement,setting,value
DRVALYVAREG [AACS_Y117_I118V],c-Src mean of log2(enrichment),c-Src kinase domain; [5],-1.464
same,c-Src enrich. R1,c-Src kinase domain; [6],0.3697
same,c-Src enrich. R3,c-Src kinase domain; [7],0.2802
same,c-Src enrich. R4,c-Src kinase domain; [8],0.4218
same,c-Src difference (mean log2 variant - mean log2 reference),c-Src kinase domain; [9],-0.2397
same,c-Src hit?,c-Src kinase domain; [10],FALSE
same,difference,"Grb2 SH2 domain; Grb2 SH2, mean of log2(variant) minus mean of log2(reference)",-0.1132
same,mean of log2(variant),"Grb2 SH2 domain; Grb2 SH2, mean of log2 enrichment of variant, R1-R3",-0.29
same,hit?,"Grb2 SH2 domain; Grb2 SH2, variant versus reference significant hit call",FALSE
same,Hck mean of log2(enrichment),"Hck kinase domain; mean of log2(variant) / mean of log2(reference), R1-R4",0.6801
same,Hck enrich. R1,Hck kinase domain; [6],1.248
same,Hck enrich. R3,Hck kinase domain; [7],0.3794
same,Hck enrich. R4,Hck kinase domain; [8],0.204
same,Hck difference (variant - reference),Hck kinase domain; [9],0.1112
same,Hck hit?,Hck kinase domain; [10],FALSE
same,Fyn mean of log2(enrichment),Fyn kinase domain [1]; [5],-1.274
same,Fyn enrich. R1,Fyn kinase domain [1]; [6],0.7923
same,Fyn enrich. R3,Fyn kinase domain [1]; [7],0.2683
same,Fyn enrich. R4,Fyn kinase domain [1]; [8],0.2456
same,Fyn difference (mean log2 variant - mean log2 reference),Fyn kinase domain [1]; [9],0.04124
same,Fyn hit?,Fyn kinase domain [1]; [10],FALSE
same,difference,EPHB2 kinase domain; [11],0.3459
same,mean of log2(variant),EPHB2 kinase domain; [12],-0.6512
same,difference,FGFR1 kinase domain [2]; [11],-0.08555
same,mean of log2(variant),FGFR1 kinase domain [2]; [13],-1.047
same,difference,c-Src SH2 domain; [11],-0.4301
same,mean of log2(variant),"c-Src SH2 domain; mean of log2 enrichment of variant peptide, R1-R3",-1.56
same,difference,"SHP2 C-SH2 domain; SHP2-C SH2, mean of log2(variant) minus mean of log2(reference)",-0.5364
same,mean of log2(variant),"SHP2 C-SH2 domain; SHP2-C SH2, mean of log2 enrichment of variant, R1-R3",-0.6877
same,hit?,"SHP2 C-SH2 domain; SHP2-C SH2, variant versus reference significant hit call",FALSE
same,AncSZ mean of log2(enrichment),AncSZ kinase domain; mean of log2 of enrichment over R1-R5,-0.4041
same,AncSZ enrich. R1,AncSZ kinase domain; [6],1.153
same,AncSZ enrich. R3,AncSZ kinase domain; [7],0.7411
same,AncSZ enrich. R4,AncSZ kinase domain; [8],0.5554
same,AncSZ enrich. R5,"AncSZ kinase domain; pTyr-Var library, enrichment score, replicate 5",0.4897
same,AncSZ difference (mean log2 variant - mean log2 reference),AncSZ kinase domain; [9],-0.326
same,AncSZ hit?,AncSZ kinase domain; [10],FALSE
same,difference,FGFR3 kinase domain; [11],-0.06288
same,mean of log2(variant),FGFR3 kinase domain; [13],-0.601
same,Fer mean of log2(enrichment),Fer kinase domain; [5],-1.031
same,Fer enrich. R1,Fer kinase domain; [6],0.6342
same,Fer enrich. R3,Fer kinase domain; [7],0.3786
same,Fer enrich. R4,Fer kinase domain; [8],0.4545
same,Fer difference (mean log2 variant - mean log2 reference),Fer kinase domain; [9],0.05113
same,Fer hit?,Fer kinase domain; [10],FALSE
same,difference,MERTK kinase domain; [11],-0.4526
same,mean of log2(variant),MERTK kinase domain; [12],-1.84
same,Fes mean of log2(enrichment),Fes; mean of log2 of enrichment over R1-R6,-0.04177
same,Fes difference (mean log2 variant - mean log2 reference),Fes; [9],-0.2234
same,difference,EPHB1 kinase domain; [11],-0.2676
same,mean of log2(variant),EPHB1 kinase domain; [12],-0.8888
same,Jak2 mean of log2(enrichment),Jak2; mean of log2 of enrichment over R1-R3,-0.2901
same,Jak2 enrich. R1,Jak2; [6],0.73
same,Jak2 enrich. R3,Jak2; [7],0.9423
same,Jak2 difference (mean log2 variant - mean log2 reference),Jak2; [9],-0.3116
same,Jak2 hit?,Jak2; [10],FALSE
same,c-Abl mean of log2(enrichment),c-Abl kinase domain; [5],-0.7858
same,c-Abl enrich. R1,c-Abl kinase domain; [6],0.555
same,c-Abl enrich. R3,c-Abl kinase domain; [7],0.7635
same,c-Abl enrich. R4,c-Abl kinase domain; [8],0.4657
same,c-Abl hit?,c-Abl kinase domain; [10],FALSE
"SHP2 D61V: human full-length SHP2 (residues 1–526; C459E, D61V) (protein, UniProt Q06124 2-593, looked up, variant C459E D61V) Tyrosine-protein phosphatase …: TSRRWFHPNITGVEAENLLLTRGVDGSFLARPSKSNPGDFTLSVRRNGAVTHIKIQNTGVYYDLYGGEKFATLAELVQYYMEHHGQLKEKNGDVIELKYPLNCADPTSERWFHGHLSGKEAEKLLTEKGKHGSFLVRESQSHPGDFVLSVRTGDDKGESNDGKSKVTHVMIRCQELKYDVGGGERFDSLTDLVEHYKKNPMVETLGTVLQLKQPLNTTRINAAEIESRVRELSKLAETTDKVKQGFWEEFETLQQQECKLLYSRKEGQRQENKNKNRYKNILPFDHTRVVLHDGDPNEPVSDYINANIIMPEFETKCNNSKPKKSYIATQGCLQNTVNDFWRMVFQENSRVIVMTTKEVERGKSKCVKYWPDEYALKEYGVMRVRNVKESAAHDYTLRELKLSKVGQGNTERTVWQYHFRTWPDHGVPSDPGGVLDFLEEVHHKQESIMDAGPVVVHESAGIGRTGTFIVIDILIDIIREKGVDCDIDVPKTIQMVRSQRSGMVQTEAQYRFIYMAVQHYIETLQRRIEEEQKSKRKGHEYTNIKYSLADQTSGDQSPLPPCTPTPPCAEMREDSARVYENVGLMQQQKSFR",phosphorylation of intact SHP2 by FGFR1,FGFR1 kinase domain [3],dramatically enhanced phosphorylation
same,phosphorylation of intact SHP2 by Fyn,Fyn kinase domain [4],dramatically enhanced phosphorylation
